Experimental data as given in ChEMBL document CHEMBL2203011, “Psammaplysin derivatives from the Balinese marine sponge Aplysinella strongylata” (J Nat Prod, 2012).
Calls of active or inactive are those of the source. No cut-off for these calls is given here.

tested on: Plasmodium falciparum; assay: Antiplasmodial activity against chloroquine-sensitive Plasmodium falciparum 3D7 infected in erythrocytes assessed as growth inhibition at 10 uM incubated for 48 hrs by [3H]hypoxanthine incorporation assay; format: functional, organism-based

**Q.** How did the “growth inhibition (GI)” value turn out when COC1=C(Br)C[C@]2(OC=C1Br)ON=C(C(=O)NCCCOc1c(Br)cc(CCNC(=O)CCCCCCCCCCCCC(C)C)cc1Br)[C@@H]2O was run?
**A.** Its value is “inactive”.

**Q.** COC1=C(Br)C[C@]2(OC=C1Br)ON=C(C(=O)NCCCOc1c(Br)cc(C=O)cc1Br)[C@@H]2O was tested. Which “growth inhibition (GI)” value did it give?
**A.** The value was “inactive”.

**Q.** COC1=C(Br)C[C@]2(OC=C1Br)ON=C(C(=O)NCCCOc1c(Br)cc(C3CNC(=O)O3)cc1Br)[C@@H]2O (some centres undefined) was tested. Which “growth inhibition (GI)” value did it give?
**A.** Its value is “inactive”.

**Q.** How did the “growth inhibition (GI)” value turn out when CCCCC/C=C\CCCCCCCCC(=O)NCCc1cc(Br)c(OCCCNC(=O)C2=NO[C@@]3(CC(Br)=C(OC)C(Br)=CO3)[C@H]2O)c(Br)c1 was run?
**A.** Its value is “inactive”.

**Q.** With CCCCCCCCCCCCCCCCCC(=O)NCC(O)c1cc(Br)c(OCCCNC(=O)C2=NO[C@@]3(CC(Br)=C(OC)C(Br)=CO3)[C@H]2O)c(Br)c1 (some centres undefined) as the compound, how does the “growth inhibition (GI)” value read?
**A.** Its value is “inactive”.

**Q.** CCC(C)CCCCCCCCCCCCCCC(=O)NCCc1cc(Br)c(OCCCNC(=O)C2=NO[C@@]3(CC(Br)=C(OC)C(Br)=CO3)[C@H]2O)c(Br)c1 (some centres undefined) was tested. Which “growth inhibition (GI)” value did it give?
**A.** The value was “inactive”.

**Q.** For COC1=C(Br)C[C@]2(OC=C1Br)ON=C(C(=O)NCCCOc1c(Br)cc(CCNC(=O)CO)cc1Br)[C@@H]2O, which “growth inhibition (GI)” value is on record?
**A.** The value was “inactive”.

**Q.** COC1=C(Br)C[C@]2(OC=C1Br)ON=C(C(=O)NCCCOc1c(Br)cc(C(O)CNC=C3C(=O)C=CC3=O)cc1Br)[C@@H]2O (some centres undefined) was tested. Which “growth inhibition (GI)” value did it give?
**A.** Its value is “Active”.

tested on: Plasmodium falciparum; assay: Antiplasmodial activity against chloroquine-sensitive Plasmodium falciparum 3D7 infected in erythrocytes assessed as growth inhibition incubated for 48 hrs by [3H]hypoxanthine incorporation assay; format: functional, organism-based

**Q.** With COC1=C(Br)C[C@]2(OC=C1Br)ON=C(C(=O)NCCCOc1c(Br)cc(C(O)CNC=C3C(=O)C=CC3=O)cc1Br)[C@@H]2O (some centres undefined) as the compound, how does the IC50 read?
**A.** Its IC50 is 6.4 µM.
